Results on three compounds are retold here after patent US20200182856A1, “Method of Evaluating Nutriture” (OTSUKA PHARMACEUTICAL CO., LTD., priority 2016, published 2020).

A short description of series [1]: Breath test using 13C-amino acid in fed and fasted ZDF lean rats. Particulars: 50 μmol/kg orally; for time for which the tendency (Δ^13C higher in fasted than in fed state) continued: expired air collected up to 60 minutes. On the procedure: ZDF lean rats were placed in the fed/fasted state and the light-dark cycle as described above. 1-^13C-leucine, 1-^13C-alanine, or 1-^13C-glutamic acid (Cambridge Isotope Laboratories, Inc (Andover, Mass., USA)) dissolved in physiological saline was administered orally at 50 μmol/kg each (n=4 for each amino acid) at 13:00 of Day 2 in the fed state or 13:00 of Day 3 in the fasted state. Expired air samples were collected before the administration (0 minutes) and at several time points up to 60 minutes after the administration and Δ^13C (%) values were measured using a mass spectrometer for breath analysis (“ABCA” Sercon).

The conditions of series [2]: ZDF fatty rats (diabetes model), fed, 50 μmol/kg orally, from the start of the administration to the end of the measurement (60 minutes). On the procedure:
ZDF fatty rats F1, F2, and F3 mentioned above were placed in the light-dark cycle as described above. 1-^13C-glutamic acid dissolved in physiological saline was administered orally at 50 μmol/kg. Expired air samples were collected before the administration (0 minutes) and at several time points up to 60 minutes after the administration and Δ^13C (%) values were measured using a mass spectrometer for breath analysis (“ABCA” Sercon).

Series [3] is described as follows: Breath test using 13C-alanine in ZDF fatty rats F1 and F2. The note with it: fed, 50 μmol/kg orally, from the start of the administration. On the procedure:
ZDF fatty rats F1 and F2 mentioned above were placed in the light-dark cycle as described above. 1-^13C-alanine dissolved in physiological saline was administered orally at 50 μmol/kg. Expired air samples were collected before the administration (0 minutes) and at several time points up to 60 minutes after the administration and Δ^13C (%) values were measured using a mass spectrometer for breath analysis (“ABCA” Sercon).

For the compound `CC(C)C[C@H](N)[13C](=O)O` [1-^13C-leucine], in series [1], the “time for which the tendency (Δ^13C higher in fasted than in fed state) continued” value is listed as “about 45 minutes”.

As for `N[C@@H](CCC(=O)O)[13C](=O)O` [1-^13C-glutamic acid], the “Δ^13C (%) values of expired air, fasted state compared with fed state” value in series [1] (10 minutes after the administration, n=4 for each amino acid) is “higher in the fasted state than in the fed state”. In series [1], the “time for which the tendency (Δ^13C higher in fasted than in fed state) continued” value is roughly 40 min. Moreover, the “Δ^13C (%) values of expired air, F1 rat (suspected sarcopenia) compared with F2 and F3 rats” value in series [2] is “higher in F1 rat than in F2 and F3 rats”.

For `C[C@H](N)[13C](=O)O` [1-^13C-alanine], the “time for which the tendency (Δ^13C higher in fasted than in fed state) continued” value in series [1] was roughly 20 min. Besides, the “time after the administration up to which Δ^13C was higher in F1 rat than in F2 rat” value in series [3] was “about 50 minutes”.
